Target: T1, Human SGLT2 (hSGLT2) (Homo sapiens, UniProt P31639)
T1 construct: expressed in transfected cells
T1 sequence (P31639 1-672): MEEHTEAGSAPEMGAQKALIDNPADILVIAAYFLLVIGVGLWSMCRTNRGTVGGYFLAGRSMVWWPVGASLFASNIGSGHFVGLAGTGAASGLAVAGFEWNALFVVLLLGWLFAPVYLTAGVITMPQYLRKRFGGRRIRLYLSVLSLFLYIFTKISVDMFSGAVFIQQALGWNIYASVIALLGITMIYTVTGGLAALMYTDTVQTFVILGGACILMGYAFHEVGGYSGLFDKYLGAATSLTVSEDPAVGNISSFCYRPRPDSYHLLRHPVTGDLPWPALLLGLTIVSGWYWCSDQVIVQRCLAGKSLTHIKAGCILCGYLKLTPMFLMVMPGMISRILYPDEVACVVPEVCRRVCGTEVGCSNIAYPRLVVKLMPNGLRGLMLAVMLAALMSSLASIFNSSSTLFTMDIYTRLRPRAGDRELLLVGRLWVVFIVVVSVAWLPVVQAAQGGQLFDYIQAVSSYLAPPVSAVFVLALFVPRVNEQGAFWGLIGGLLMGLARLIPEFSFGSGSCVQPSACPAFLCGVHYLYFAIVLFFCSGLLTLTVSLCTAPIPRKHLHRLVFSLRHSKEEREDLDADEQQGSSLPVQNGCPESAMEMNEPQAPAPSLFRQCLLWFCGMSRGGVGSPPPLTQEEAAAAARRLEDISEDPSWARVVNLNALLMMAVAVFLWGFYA
Experiment: Sodium-dependent glucose transport (14C-AMG uptake) assay in CHO cells stably expressing hSGLT2
Format: cell-based
Conditions: CHO cells expressing hSGLT2, 14C-AMG uptake, 37° C. for 2 h; single determinations; read-out: hSGLT2 Inhibitory Activity IC50
Method in brief: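 Uptake of 14C-α-methyl-D-glucopyranoside (8 μM labeled, 1 mM unlabeled, NaCl buffer pH 7.4) measured over 2 h at 37 °C with inhibitor in hSGLT2-transfected CHO cells after 10 min choline-buffer pretreatment. Radioactivity by liquid scintillation; IC50 from nonlinear regression.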

SMILES | IC50 [nM]
COc1cc(Cl)c(Cc2ncc(-c3ccc(F)cc3)s2)cc1[C@@H]1O[C@H](CO)[C@@H](O)[C@H](O)[C@H]1O [Example 74, (2S,3R,4R,5S,6R)-2-(4-Chloro-5-((5-(4-fluorophenyl)thiazol-2-yl)methyl)-2-methoxyphenyl)-6-(hydroxymethyl)tetrahydro-2H-pyran-3,4,5-triol] | 6.08
CCCCCCc1cnc(Cc2cc([C@@H]3O[C@H](CO)[C@@H](O)[C@H](O)[C@H]3O)c(OC)cc2Cl)s1 [Example 75, (2S,3R,4R,5S,6R)-2-(4-Chloro-5-((5-hexylthiazol-2-yl)methyl)-2-methoxyphenyl)-6-(hydroxymethyl)tetrahydro-2H-pyran-3,4,5-triol] | 4.48
COc1cc(Cl)c(Cc2ncc(C3CCCC3)s2)cc1[C@@H]1O[C@H](CO)[C@@H](O)[C@H](O)[C@H]1O [Example 76, (2S,3R,4R,5S,6R)-2-(4-Chloro-5-((5-cyclopentylthiazol-2-yl)methyl)-2-methoxyphenyl)-6-(hydroxymethyl)tetrahydro-2H-pyran-3,4,5-triol] | 9.35
CCOc1cc(Cl)c(Cc2ncc(-c3ccco3)s2)cc1[C@@H]1O[C@H](CO)[C@@H](O)[C@H](O)[C@H]1O [Example 77, (2S,3R,4R,5S,6R)-2-(4-Chloro-2-ethoxy-5-((5-(furan-2-yl)thiazol-2-yl)methyl)phenyl)-6-(hydroxymethyl)tetrahydro-2H-pyran-3,4,5-triol] | 3.98
CCOc1cc(Cl)c(Cc2ncc(-c3ccoc3)s2)cc1[C@@H]1O[C@H](CO)[C@@H](O)[C@H](O)[C@H]1O [Example 78, (2S,3R,4R,5S,6R)-2-(4-Chloro-2-ethoxy-5-((5-(furan-3-yl)thiazol-2-yl)methyl)phenyl)-6-(hydroxymethyl)-tetrahydro-2H-pyran-3,4,5-triol] | 4.35
CCOc1cc(Cl)c(Cc2ncc(-c3cccs3)s2)cc1[C@@H]1O[C@H](CO)[C@@H](O)[C@H](O)[C@H]1O [Example 79, (2S,3R,4R,5S,6R)-2-(4-Chloro-2-ethoxy-5-((5-(thiophen-2-yl)thiazol-2-yl)methyl)phenyl)-6-(hydroxymethyl)tetralrydro-2H-pyran-3,4,5-triol] | 4.29
CCOc1cc(Cl)c(Cc2ncc(-c3ccccc3)s2)cc1[C@@H]1O[C@H](CO)[C@@H](O)[C@H](O)[C@H]1O [Example 81, (2S,3R,4R,5S,6R)-2-(4-Chloro-2-ethoxy-5-((5-phenylthiazol-2-yl)methyl)phenyl)-6-(hydroxymethyl)tetrahydro-2H-pyran-3,4,5-triol] | 2.87
CCOc1cc(Cl)c(Cc2ncc(-c3ccc(F)cc3)s2)cc1[C@@H]1O[C@H](CO)[C@@H](O)[C@H](O)[C@H]1O [Example 82, (2S,3R,4R,5S,6R)-2-(4-Chloro-2-ethoxy-5-((5-(4-fluorophenyl)thiazol-2-yl)methyl)phenyl)-6-(hydroxymethyl)tetrahydro-2H-pyran-3,4,5-triol] | 7.55
C=CCOc1cc(Cl)c(Cc2ncc(-c3ccco3)s2)cc1[C@@H]1O[C@H](CO)[C@@H](O)[C@H](O)[C@H]1O [Example 83, (2S,3R,4R,5S,6R)-2-(2-(Allyloxy)-4-chloro-5-((5-(furan-2-yl)thiazol-2-yl)methyl)phenyl)-6-(hydroxymethyl)tetrahydro-2H-pyran-3,4,5-triol] | 1.24
C=CCOc1cc(Cl)c(Cc2ncc(-c3ccoc3)s2)cc1[C@@H]1O[C@H](CO)[C@@H](O)[C@H](O)[C@H]1O [Example 84, (2S,3R,4R,5S,6R)-2-(2-(Allyloxy)-4-chloro-5-((5-(furan-3-yl)thiazol-2-yl)methyl)phenyl)-6-(hydroxymethyl)tetrahydro-2H-pyran-3,4,5-triol] | 1.54
C=CCOc1cc(Cl)c(Cc2ncc(-c3cccs3)s2)cc1[C@@H]1O[C@H](CO)[C@@H](O)[C@H](O)[C@H]1O [Example 85, (2S,3R,4R,5S,6R)-2-(2-(Allyloxy)-4-chloro-5-((5-(thiophen-2-yl)thiazol-2-yl)methyl)phenyl)-6-(hydroxymethyl)tetrahydro-2H-pyran-3,4,5-triol] | 1.69
C=CCOc1cc(Cl)c(Cc2ncc(-c3ccsc3)s2)cc1[C@@H]1O[C@H](CO)[C@@H](O)[C@H](O)[C@H]1O [Example 86, (2S,3R,4R,5S,6R)-2-(2-(Allyloxy)-4-chloro-5-((5-(thiophen-3-yl)thiazol-2-yl)methyl)phenyl)-6-(hydroxymethyl)tetrahydro-2H-pyran-3,4,5-triol] | 0.934
C=CCOc1cc(Cl)c(Cc2ncc(-c3ccccc3)s2)cc1[C@@H]1O[C@H](CO)[C@@H](O)[C@H](O)[C@H]1O [Example 87, (2S,3R,4R,5S,6R)-2-(2-(Allyloxy)-4-chloro-5-((5-phenylthiazol-2-yl)methyl)phenyl)-6-(hydroxymethyl)tetrahydro-2H-pyran-3,4,5-triol] | 3.38
C=CCOc1cc(Cl)c(Cc2ncc(-c3ccc(F)cc3)s2)cc1[C@@H]1O[C@H](CO)[C@@H](O)[C@H](O)[C@H]1O [Example 88, (2S,3R,4R,5S,6R)-2-(2-(Allyloxy)-4-chloro-5-((5-(4-fluorophenyl)thiazol-2-yl)methyl)phenyl)-6-(hydroxymethyl)tetrahydro-2H-pyran-3,4,5-triol] | 4.22
OC[C@H]1O[C@@H](c2cc(Cc3ncc(-c4ccco4)s3)cc3ccccc23)[C@H](O)[C@@H](O)[C@@H]1O [Example 93, (2S,3R,4R,5S,6R)-2-(3-((5-(Furan-2-yl)thiazol-2-yl)methyl)naphthalen-1-yl)-6-(hydroxymethyl)tetrahydro-2H-pyran-3,4,5-triol] | 14.3
OC[C@H]1O[C@@H](c2cc(Cc3ncc(-c4cccs4)s3)cc3ccccc23)[C@H](O)[C@@H](O)[C@@H]1O [Example 94, (2R,3S,4R,5R,6S)-2-(Hydroxymethyl)-6-(3-((5-(thiophen-2-yl)thiazol-2-yl)methyl)naphthalen-1-yl)tetrahydro-2H-pyran-3,4,5-triol] | 5.98
COc1c(Cc2ncc(-c3ccco3)s2)cc([C@@H]2O[C@H](CO)[C@@H](O)[C@H](O)[C@H]2O)c2ccccc12 [Example 95, (2S,3R,4R,5S,6R)-2-(3-((5-(Furan-2-yl)thiazol-2-yl)methyl)-4-methoxynaphthalen-1-yl)-6-(hydroxymethyl)-tetrahydro-2H-pyran-3,4,5-triol] | 2.94
COc1c(Cc2ncc(-c3cccs3)s2)cc([C@@H]2O[C@H](CO)[C@@H](O)[C@H](O)[C@H]2O)c2ccccc12 [Example 96, (2R,3S,4R,5R,6S)-2-(Hydroxymethyl)-6-(4-methoxy-3-((5-(thiophen-2-yl)thiazol-2-yl)methyl)naphthalen-1-yl)-tetrahydro-2H-pyran-3,4,5-triol] | 4.94
COc1c(Cc2ncc(-c3ccccc3)s2)cc([C@@H]2O[C@H](CO)[C@@H](O)[C@H](O)[C@H]2O)c2ccccc12 [Example 97, (2R,3S,4R,5R,6S)-2-(Hydroxymethyl)-6-(4-methoxy-3-((5-phenylthiazol-2-yl)methyl)naphthalen-1-yl)-tetrahydro-2H-pyran-3,4,5-triol] | 6.77
COc1c(Cc2ncc(C)s2)cc([C@@H]2O[C@H](CO)[C@@H](O)[C@H](O)[C@H]2O)c2ccccc12 [Example 98, (2R,3S,4R,5R,6S)-2-(Hydroxymethyl)-6-(4-methoxy-3-((5-methylthiazol-2-yl)methyl)naphthalen-1-yl)-tetrahydro-2H-pyran-3,4,5-triol] | 29.9
CCCCCCCc1cnc(Cc2cc([C@@H]3O[C@H](CO)[C@@H](O)[C@H](O)[C@H]3O)c3ccccc3c2OC)s1 [Example 100, (2S,3R,4R,5S,6R)-2-(3-((5-Heptylthiazol-2-yl)methyl)-4-methoxynaphthalen-1-yl)-6-(hydroxymethyl)-tetrahydro-2H-pyran-3,4,5-triol] | 7.3
COc1c(Cc2ncc(C3CCCC3)s2)cc([C@@H]2O[C@H](CO)[C@@H](O)[C@H](O)[C@H]2O)c2ccccc12 [Example 101, (2S,3R,4R,5S,6R)-2-(3-((5-Cyclopentylthiazol-2-yl)methyl)-4-methoxynaphthalen-1-yl)-6-(hydroxymethyl)-tetrahydro-2H-pyran-3,4,5-triol] | 26.8
COc1c(Cc2ncc(C3CCCCC3)s2)cc([C@@H]2O[C@H](CO)[C@@H](O)[C@H](O)[C@H]2O)c2ccccc12 [Example 102, (2S,3R,4R,5S,6R)-2-(3-((5-Cyclohexylthiazol-2-yl)methyl)-4-methoxynaphthalen-1-yl)-6-(hydroxymethyl)-tetrahydro-2H-pyran-3,4,5-triol] | 50.3
CCOc1cnc(Cc2cc([C@@H]3O[C@H](CO)[C@@H](O)[C@H](O)[C@H]3O)c3ccccc3c2OC)s1 [Example 103, (2S,3R,4R,5S,6R)-2-(3-((5-Ethoxythiazol-2-yl)methyl)-4-methoxynaphthalen-1-yl)-6-(hydroxymethyl)-tetrahydro-2H-pyran-3,4,5-triol] | 51.8

Reference: patent US8586550B2, “Thiazole derivatives as SGLT2 inhibitors and pharmaceutical composition comprising same” (Green Cross Corporation, priority 2010, dated 2013)
